Patent US20130252816A1, “HERBICIDAL COMPOSITION AND USE THEREOF” (Syngenta Crop Protection LLC, priority 2010, published 2013)

Key:
Experiment in all cases: Example 2: alcohol ethoxylate adjuvants without glyphosate, visual % damage, tracksprayer 300 l/ha
Type in all cases: in vivo
[1] = tested on: Poa annua
Description: (§1) The effect of different types of alcohol ethoxylate (branched—Genapol X-series, and unbranched—Genapol O-series, differing degrees of ethoxylation, see Table 3 below for more details), on unwanted vegetation (broadleaf weed and grass species), in the absence of glyphosate, was investigated and compared to untreated (water only) control weeds.
(§2) Troughs (measuring 16 cm by 13 cm by 5 cm) were filled with local field soil. Seeds of Veronica persica, Stellaria media, Trifolium repens and Poa annua were sown 24 days before application of test samples. Plants were grown in the glasshouse at 18 to 20° C. and 60% relative humidity. Application of alcohol ethoxylate test samples was carried out using a tracksprayer, spraying at a rate of 300 l/ha. Plants were kept in glasshouse and visual assessment of the estimated percentage damage to the plant was carried out 1, 7, and 14 days from application.
(§3) Damage was assessed as wilting, desiccation or any other kind of visual injury in comparison to the untreated control (water only).

[2] = tested on: Stellaria media
Description: as §1, §2, §3

[3] = tested on: Trifolium repens
Description: as §1, §2, §3

[4] = tested on: Veronica persica
Description: as §1, §2, §3

Oleyl alcohol polyglycol ether with 8 moles of ethoxylation [GenapolO080]
mean % damage 1 daa Poa annua ([1]; adjuvant 1% w/v): 0%
mean % damage 7 daa Poa annua ([1]; adjuvant 1% w/v): 5%
mean % damage 14 daa Poa annua ([1]; adjuvant 1% w/v): 0%
mean % damage 1 daa Poa annua ([1]; adjuvant 1.5% w/v): 0%
mean % damage 7 daa Poa annua ([1]; adjuvant 1.5% w/v): 5%
mean % damage 14 daa Poa annua ([1]; adjuvant 1.5% w/v): 0%
mean % damage 1 daa Poa annua ([1]; adjuvant 2% w/v): 0%
mean % damage 7 daa Poa annua ([1]; adjuvant 2% w/v): 5%
mean % damage 14 daa Poa annua ([1]; adjuvant 2% w/v): 0%
mean % damage 1 daa Poa annua ([1]; adjuvant 2.5% w/v): 0%
mean % damage 7 daa Poa annua ([1]; adjuvant 2.5% w/v): 5%
mean % damage 14 daa Poa annua ([1]; adjuvant 2.5% w/v): 0%
mean % damage 1 daa Stellaria media ([2]; adjuvant 1% w/v): 0%
mean % damage 7 daa Stellaria media ([2]; adjuvant 1% w/v): 0%
mean % damage 14 daa Stellaria media ([2]; adjuvant 1% w/v): 0%
mean % damage 1 daa Stellaria media ([2]; adjuvant 1.5% w/v): 0%
mean % damage 7 daa Stellaria media ([2]; adjuvant 1.5% w/v): 0%
mean % damage 14 daa Stellaria media ([2]; adjuvant 1.5% w/v): 5%
mean % damage 1 daa Stellaria media ([2]; adjuvant 2% w/v): 0%
mean % damage 7 daa Stellaria media ([2]; adjuvant 2% w/v): 5%
mean % damage 14 daa Stellaria media ([2]; adjuvant 2% w/v): 0%
mean % damage 1 daa Stellaria media ([2]; adjuvant 2.5% w/v): 0%
mean % damage 7 daa Stellaria media ([2]; adjuvant 2.5% w/v): 0%
mean % damage 14 daa Stellaria media ([2]; adjuvant 2.5% w/v): 10%
mean % damage 1 daa Trifolium repens ([3]; adjuvant 1% w/v): 0%
mean % damage 7 daa Trifolium repens ([3]; adjuvant 1% w/v): 0%
mean % damage 14 daa Trifolium repens ([3]; adjuvant 1% w/v): 0%
mean % damage 1 daa Trifolium repens ([3]; adjuvant 1.5% w/v): 0%
mean % damage 7 daa Trifolium repens ([3]; adjuvant 1.5% w/v): 0%
mean % damage 14 daa Trifolium repens ([3]; adjuvant 1.5% w/v): 0%
mean % damage 1 daa Trifolium repens ([3]; adjuvant 2% w/v): 5%
mean % damage 7 daa Trifolium repens ([3]; adjuvant 2% w/v): 0%
mean % damage 14 daa Trifolium repens ([3]; adjuvant 2% w/v): 0%
mean % damage 1 daa Trifolium repens ([3]; adjuvant 2.5% w/v): 5%
mean % damage 7 daa Trifolium repens ([3]; adjuvant 2.5% w/v): 10%
mean % damage 14 daa Trifolium repens ([3]; adjuvant 2.5% w/v): 10%
mean % damage 1 daa Veronica persica ([4]; adjuvant 1% w/v): 0%
mean % damage 7 daa Veronica persica ([4]; adjuvant 1% w/v): 5%
mean % damage 14 daa Veronica persica ([4]; adjuvant 1% w/v): 10%
mean % damage 1 daa Veronica persica ([4]; adjuvant 1.5% w/v): 0%
mean % damage 7 daa Veronica persica ([4]; adjuvant 1.5% w/v): 0%
mean % damage 14 daa Veronica persica ([4]; adjuvant 1.5% w/v): 10%
mean % damage 1 daa Veronica persica ([4]; adjuvant 2% w/v): 0%
mean % damage 7 daa Veronica persica ([4]; adjuvant 2% w/v): 0%
mean % damage 14 daa Veronica persica ([4]; adjuvant 2% w/v): 0%
mean % damage 1 daa Veronica persica ([4]; adjuvant 2.5% w/v): 0%
mean % damage 7 daa Veronica persica ([4]; adjuvant 2.5% w/v): 5%
mean % damage 14 daa Veronica persica ([4]; adjuvant 2.5% w/v): 0%

Iso-tridecyl alcohol polyglycol ether with 2 moles of ethoxylation [GenapolX020]
mean % damage 1 daa Poa annua ([1]; adjuvant 1% w/v): 0%
mean % damage 7 daa Poa annua ([1]; adjuvant 1% w/v): 0%
mean % damage 14 daa Poa annua ([1]; adjuvant 1% w/v): 0%
mean % damage 1 daa Poa annua ([1]; adjuvant 1.5% w/v): 0%
mean % damage 7 daa Poa annua ([1]; adjuvant 1.5% w/v): 5%
mean % damage 14 daa Poa annua ([1]; adjuvant 1.5% w/v): 0%
mean % damage 1 daa Poa annua ([1]; adjuvant 2% w/v): 0%
mean % damage 7 daa Poa annua ([1]; adjuvant 2% w/v): 5%
mean % damage 14 daa Poa annua ([1]; adjuvant 2% w/v): 0%
mean % damage 1 daa Poa annua ([1]; adjuvant 2.5% w/v): 0%
mean % damage 7 daa Poa annua ([1]; adjuvant 2.5% w/v): 5%
mean % damage 14 daa Poa annua ([1]; adjuvant 2.5% w/v): 0%
mean % damage 1 daa Stellaria media ([2]; adjuvant 1% w/v): 0%
mean % damage 7 daa Stellaria media ([2]; adjuvant 1% w/v): 0%
mean % damage 14 daa Stellaria media ([2]; adjuvant 1% w/v): 0%
mean % damage 1 daa Stellaria media ([2]; adjuvant 1.5% w/v): 0%
mean % damage 7 daa Stellaria media ([2]; adjuvant 1.5% w/v): 0%
mean % damage 14 daa Stellaria media ([2]; adjuvant 1.5% w/v): 0%
mean % damage 1 daa Stellaria media ([2]; adjuvant 2% w/v): 0%
mean % damage 7 daa Stellaria media ([2]; adjuvant 2% w/v): 5%
mean % damage 14 daa Stellaria media ([2]; adjuvant 2% w/v): 5%
mean % damage 1 daa Stellaria media ([2]; adjuvant 2.5% w/v): 0%
mean % damage 7 daa Stellaria media ([2]; adjuvant 2.5% w/v): 5%
mean % damage 14 daa Stellaria media ([2]; adjuvant 2.5% w/v): 0%
mean % damage 1 daa Trifolium repens ([3]; adjuvant 1% w/v): 0%
mean % damage 7 daa Trifolium repens ([3]; adjuvant 1% w/v): 0%
mean % damage 14 daa Trifolium repens ([3]; adjuvant 1% w/v): 0%
mean % damage 1 daa Trifolium repens ([3]; adjuvant 1.5% w/v): 5%
mean % damage 7 daa Trifolium repens ([3]; adjuvant 1.5% w/v): 5%
mean % damage 14 daa Trifolium repens ([3]; adjuvant 1.5% w/v): 0%
mean % damage 1 daa Trifolium repens ([3]; adjuvant 2% w/v): 10%
mean % damage 7 daa Trifolium repens ([3]; adjuvant 2% w/v): 5%
mean % damage 14 daa Trifolium repens ([3]; adjuvant 2% w/v): 0%
mean % damage 1 daa Trifolium repens ([3]; adjuvant 2.5% w/v): 10%
mean % damage 7 daa Trifolium repens ([3]; adjuvant 2.5% w/v): 5%
mean % damage 14 daa Trifolium repens ([3]; adjuvant 2.5% w/v): 10%
mean % damage 1 daa Veronica persica ([4]; adjuvant 1% w/v): 0%
mean % damage 7 daa Veronica persica ([4]; adjuvant 1% w/v): 0%
mean % damage 14 daa Veronica persica ([4]; adjuvant 1% w/v): 0%
mean % damage 1 daa Veronica persica ([4]; adjuvant 1.5% w/v): 0%
mean % damage 7 daa Veronica persica ([4]; adjuvant 1.5% w/v): 0%
mean % damage 14 daa Veronica persica ([4]; adjuvant 1.5% w/v): 0%
mean % damage 1 daa Veronica persica ([4]; adjuvant 2% w/v): 5%
mean % damage 7 daa Veronica persica ([4]; adjuvant 2% w/v): 5%
mean % damage 14 daa Veronica persica ([4]; adjuvant 2% w/v): 5%
mean % damage 1 daa Veronica persica ([4]; adjuvant 2.5% w/v): 5%
mean % damage 7 daa Veronica persica ([4]; adjuvant 2.5% w/v): 5%
mean % damage 14 daa Veronica persica ([4]; adjuvant 2.5% w/v): 5%
